Experimental data published in ChEMBL document CHEMBL3621088, “Synthesis of novel acridine bis-sulfonamides with effective inhibitory activity against the carbonic anhydrase isoforms I, II, IX and XII” (Bioorg Med Chem, 2015).
pKi: −log10 of the molar value.

Target: Carbonic anhydrase 9 (Homo sapiens, UniProt Q16790)
Description: Inhibition of recombinant human carbonic anhydrase 9 catalytic domain expressed in Escherichia coli incubated for 15 mins prior to testing by stopped flow CO2 hydrase assay

Molecule `Cc1ccc(S(=O)(=O)Nc2ccc(C3C4=C(CC(C)(C)CC4=O)N(c4ccc(S(N)(=O)=O)cc4)C4=C3C(=O)CC(C)(C)C4)cc2)cc1` has a pKi of 7.00.
Work on `CC1(C)CC(=O)C2=C(C1)N(c1ccc(S(N)(=O)=O)cc1)C1=C(C(=O)CC(C)(C)C1)C2c1ccc(NS(=O)(=O)c2ccc(Br)cc2)cc1` yielded a pKi of 5.95.
For `COc1ccc(S(=O)(=O)Nc2cccc(C3C4=C(CC(C)(C)CC4=O)N(c4ccc(S(N)(=O)=O)cc4)C4=C3C(=O)CC(C)(C)C4)c2)cc1`, the pKi was 6.10.
In the case of `COc1ccc(S(=O)(=O)Nc2ccc(C3C4=C(CC(C)(C)CC4=O)N(c4ccc(S(N)(=O)=O)cc4)C4=C3C(=O)CC(C)(C)C4)cc2)cc1`, the pKi was 6.36.
In the case of `Cc1ccc(S(=O)(=O)Nc2cccc(C3C4=C(CC(C)(C)CC4=O)N(c4ccc(S(N)(=O)=O)cc4)C4=C3C(=O)CC(C)(C)C4)c2)cc1`, the pKi was 7.00.
`CC1(C)CC(=O)C2=C(C1)N(c1ccc(S(N)(=O)=O)cc1)C1=C(C(=O)CC(C)(C)C1)C2c1cccc(N)c1` showed a pKi of 6.04.
With `CC1(C)CC(=O)C2=C(C1)N(c1ccc(S(N)(=O)=O)cc1)C1=C(C(=O)CC(C)(C)C1)C2c1cccc(NS(=O)(=O)c2ccc(Br)cc2)c1` the pKi was 6.60.
With `CC1(C)CC(=O)C2=C(C1)N(c1ccc(S(N)(=O)=O)cc1)C1=C(C(=O)CC(C)(C)C1)C2c1ccc(NS(=O)(=O)c2ccccc2)cc1` the pKi was 6.24.
`CC1(C)CC(=O)C2=C(C1)N(c1ccc(S(N)(=O)=O)cc1)C1=C(C(=O)CC(C)(C)C1)C2c1cccc(NS(=O)(=O)c2ccccc2)c1` showed a pKi of 6.96.
`CC1(C)CC(=O)C2=C(C1)N(c1ccc(S(N)(=O)=O)cc1)C1=C(C(=O)CC(C)(C)C1)C2c1ccc(NS(=O)(=O)c2ccc3ccccc3c2)cc1` gave a pKi of 6.55.
For `CC1(C)CC(=O)C2=C(C1)N(c1ccc(S(N)(=O)=O)cc1)C1=C(C(=O)CC(C)(C)C1)C2c1cccc(NS(=O)(=O)c2ccc3ccccc3c2)c1`, the pKi was 6.09.
For `CC1(C)CC(=O)C2=C(C1)N(c1ccc(S(N)(=O)=O)cc1)C1=C(C(=O)CC(C)(C)C1)C2c1ccc(N)cc1`, the pKi was 6.00.
